For one test, the target named is T1, hTRPV5 (Homo sapiens, UniProt Q9NQA5).
T1 construct: gene TRPV5; EGFP on separate plasmid; tetramer
The experiment in a line: outside-out patch clamp, HEK293. The class given is cell-based. (In general: Patch clamp records ionic current or voltage across a cell membrane.)

The next test deals with T2, PdTRPV5/6-like (Pocillopora damicornis, UniProt Z9K305B7A5).
T2 construct: full-length ORF, 724 residues, cloned from aquarium coral cDNA into pcDNA3.1, HEK293 transient expression; EGFP on separate plasmid; tetramer
T2 sequence (Z9K305B7A5 1-724): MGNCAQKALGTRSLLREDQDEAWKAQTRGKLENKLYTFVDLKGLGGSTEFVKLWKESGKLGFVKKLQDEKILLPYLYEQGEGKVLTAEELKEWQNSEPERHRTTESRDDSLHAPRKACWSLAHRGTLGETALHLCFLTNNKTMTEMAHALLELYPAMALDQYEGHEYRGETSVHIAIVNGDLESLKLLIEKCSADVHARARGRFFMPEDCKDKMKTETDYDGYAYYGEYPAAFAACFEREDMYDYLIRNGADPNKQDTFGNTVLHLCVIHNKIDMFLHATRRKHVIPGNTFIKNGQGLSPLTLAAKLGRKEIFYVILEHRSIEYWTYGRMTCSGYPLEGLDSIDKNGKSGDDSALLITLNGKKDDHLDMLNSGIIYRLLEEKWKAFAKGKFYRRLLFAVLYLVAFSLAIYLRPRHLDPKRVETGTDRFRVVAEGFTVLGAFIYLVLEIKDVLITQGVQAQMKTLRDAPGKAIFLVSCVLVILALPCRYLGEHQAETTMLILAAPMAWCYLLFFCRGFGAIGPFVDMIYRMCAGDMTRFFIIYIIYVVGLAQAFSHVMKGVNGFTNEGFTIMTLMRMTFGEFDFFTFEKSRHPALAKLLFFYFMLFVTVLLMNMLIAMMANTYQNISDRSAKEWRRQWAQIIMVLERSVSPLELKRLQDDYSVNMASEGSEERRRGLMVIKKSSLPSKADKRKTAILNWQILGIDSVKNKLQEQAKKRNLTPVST
As to the kind of experiment: outside-out patch clamp, HEK293. The class given is cell-based.

T1 sequence (Q9NQA5 whole entry): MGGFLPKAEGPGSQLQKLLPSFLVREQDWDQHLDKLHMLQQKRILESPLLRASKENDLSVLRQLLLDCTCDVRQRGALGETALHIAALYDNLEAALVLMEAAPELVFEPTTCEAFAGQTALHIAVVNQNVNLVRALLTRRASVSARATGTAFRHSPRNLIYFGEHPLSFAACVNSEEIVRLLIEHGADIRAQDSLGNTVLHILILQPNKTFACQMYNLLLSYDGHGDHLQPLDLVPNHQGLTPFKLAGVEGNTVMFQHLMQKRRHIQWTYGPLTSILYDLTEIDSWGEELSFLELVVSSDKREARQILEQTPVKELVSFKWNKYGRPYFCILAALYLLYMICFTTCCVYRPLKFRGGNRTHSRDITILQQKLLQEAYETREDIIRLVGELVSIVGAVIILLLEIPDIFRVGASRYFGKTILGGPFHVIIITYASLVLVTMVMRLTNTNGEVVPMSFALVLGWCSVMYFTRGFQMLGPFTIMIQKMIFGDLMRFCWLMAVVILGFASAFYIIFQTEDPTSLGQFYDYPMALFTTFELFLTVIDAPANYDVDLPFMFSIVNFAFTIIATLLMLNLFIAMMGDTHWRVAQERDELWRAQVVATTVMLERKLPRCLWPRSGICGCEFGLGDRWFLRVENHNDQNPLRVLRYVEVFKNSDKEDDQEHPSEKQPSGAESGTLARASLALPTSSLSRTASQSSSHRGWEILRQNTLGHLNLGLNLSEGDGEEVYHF

Consider `Clc1ccc(COC(Cn2ccnc2)c2ccc(Cl)cc2Cl)c(Cl)c1` (centres unmarked) [miconazole], for which the IC50 – broadly, the concentration at which inhibition is half-maximal – against hTRPV5 was found to be 0.0512 µM.
Regarding `CC(C)[C@@H]1CC[C@@H](C)C[C@H]1O` [(-)-menthol], the IC50 on PdTRPV5/6-like came to 120 µM.

These data come from paper PMC12503276, “A novel TRPV5/6-like channel from a scleractinian coral” (PLOS One, 2025).
